Measurements from patent US20190298743A1, “TREATMENT OF PAIN” (Takeda Pharmaceutical Company Limited, priority 2016, published 2019).

Assays:
PAR2 [1] = test: BRET resensitisation assay, PAR2-RLuc8 with TGN38-venus in HEK293 cells; type: cell-based; details: 30 minute pre-treatment, all three proteases
Procedure: BRET resensitisation assays were used to quantify export of PAR2 from the trans-golgi network (TGN38-venus) upon stimulation of receptor expressed at the cell surface with a variety of proteases. The assays were repeated with various inhibitors of signaling nodes to verify signaling mechanisms behind receptor resensitisation.
After achieving ˜50% confluency within 10 cm dishes HEK293 cells were transiently transfected with PAR2-RLuc8 (1 μg) and TGN38-Venus (4 μg) using PEI as a transfection agent. 24 hours post transfection, cells were seeded into poly-D-lysine coated 96-well isoplates. BRET experiments were conducted the following day. Cells were allowed to equilibrate in either 1×HBSS (+0-28 g HEPES/100 ml, pH 7-40), […] Gallein (Gβγ inhibitor), 100 nM CRT0066101 (PKD inhibitor) or G06983 (PKC inhibitor) at 37° C. for 30 minutes before the addition of colenterazine H [5 μM]. Following a 5 minute incubation BRET was assessed using a LUMIstar Omega microplate reader (BMG LabTech, Offenburg, Germany), with luminescence being read at 535 nm and 475 nm. A 4 minute baseline was obtained before the addition of vehicle (1×HBSS) or protease, measurements were then continued for a further 30 minutes. BRET ratios were calculated using LUMIstar MARS analysis software and then corrected to baseline and vehicle treatments in Microsoft Excel 2013.

PAR2 [2] = test: FRET biosensors for compartmentalised cAMP, PKC and ERK signals in HEK cells and rat dorsal root ganglia neurons; type: cell-based
Procedure: (§1) The contribution of endocytosis of protease-activated receptor-2 (PAR2) was evaluated for generation of signals in subcellular compartments that mediate protease-evoked sensitization of nociceptors. Bioluminescence resonance energy transfer (BRET) was used to assess the proximity of PAR2 to resident proteins of the plasma membrane (KRas) and endosomes (Rab5a) in HEK cells. […] Förster resonance energy transfer (FRET) biosensors targeted to the plasma membrane, cytosol or nucleus were used to examine the capacity of proteases to generate signals in subcellular compartments of HEK cells and rat dorsal root ganglia neurons. […] Dynamin inhibitor Dyngo4a, Clathrin inhibitor Pitstop2 and dominant negative β-arrestin inhibited trypsin-evoked endocytosis of PAR2, and prevented trypsin-evoked activation of cytosolic cAMP and PKC and nuclear ERK. […] To examine the link between PAR2 endocytosis, compartmentalized signaling and nociceptor sensitization, perforated patch clamp recordings were made from mouse dorsal root ganglia neurons. […] The effects of proteases on excitability were blocked by the PAR2 antagonist GB88. Thus, canonical and biased proteases sensitize nociceptors by distinct mechanisms. For canonical agonists, PAR2 endocytosis generates compartmentalized signals subcellular compartments that underlie sustained excitability of nociceptive neurons. Inhibiting endosomal signaling of PAR2 may provide a novel method of treating protease-evoked pain.

[3] = Protease-evoked mechanical hyperalgesia, von Frey paw withdrawal; type: in vivo, mice; details: for Effect on trypsin-evoked mechanical hyperalgesia: 30 min before trypsin
Procedure: (§2) Immediately before experiments the mice were acclimatized to the experimental apparatus, room and investigator for 1-2 h on 2 successive days. Mechanical nociceptive responses were evaluated by paw withdrawal to stimulation of the plantar surface of the hind-paw with calibrated von Frey filaments. von Frey scores were measured in triplicate to establish a baseline for each animal on the day before experiments. Paw edema was estimated by measuring the thickness of the hindpaw using digital calipers before and after treatments. Mice were […] with 5% isoflurane for intraplantar injections. Dyngo4a (50 μM), PitStop2 (50 μM) or vehicle (0.2% DMSO in 0.9% NaCl) (all 10 μl) were injected into the left hindpaw. After 30 min, trypsin (10 nM), Cat-S (2.5 μM) or elastase (30 U) (all 10 μl) were injected into the same left hindpaw. von Frey scores (left and right paws) and paw thickness (left paw) were measured hourly for up to 4 h after protease injection. Investigators were blinded to the test agents.

PAR2 [4] = test: BRET proximity of PAR2 to KRas (plasma membrane) and Rab5a (endosomes) in HEK cells; type: cell-based
Procedure: as §1

PAR2 [5] = test: BRET receptor trafficking, PAR2-RLuc8 with plasma membrane marker RIT-venus in HEK293 cells; type: cell-based; details: for Effect on trypsin evoked internalisation, plasma membrane marker: 30 μM inhibitor, 30 minute pre-treatment
Procedure: (§3) Bret studies of receptor trafficking were conducted to quantify PAR2 internalisation (RIT-venus) and trafficking to early endosomes (Rab5a-venus) upon stimulation with different agonists.
(§4) After achieving ˜50% confluency within 10 cm dishes HEK293 cells were transiently transfected with 1 μg PAR2-RLuc8 and 4 μg of either RIT-venus or Rab5a-venus using PEI as a transfection agent. 24 hours post transfection, cells were seeded into poly-D-lysine coated 96-well isoplates. […] When used endocytic inhibitors were diluted in 1×HBSS+1% dimethyl sulfoxide (DMSO). Following the replacement of culture media cells were allowed to equilibrate at 37° C. for 30 minutes before the addition of colenterazine H [5 μM]. After a further 5 minute incubation BRET was assessed using a LUMIstar Omega microplate reader (BMG LabTech, Offenburg, Germany), with luminescence being read at 535 nm and 475 nm. A 4 minute baseline was obtained before the addition of vehicle (1×HBSS+/−1% DMSO) or protease, measurements were then continued for a further 30 minutes. BRET ratios were calculated using LUMIstar MARS analysis software and then corrected to baseline and vehicle treatments in Microsoft Excel 2013.

[6] = Protease-evoked paw edema, hindpaw thickness; type: in vivo, mice
Procedure: as §2

PAR2 [7] = test: BRET receptor trafficking, PAR2-RLuc8 with early endosomal marker Rab5a-venus in HEK293 cells; type: cell-based; details: for Effect on trypsin evoked internalisation, early endosomal marker: 30 μM inhibitor, 30 minute pre-treatment
Procedure: as §3, §4

DRG neurons = test: Perforated patch-clamp excitability (rheobase) of isolated DRG neurons; type: cell-based, mice; details: for Effect of inhibitor alone on rheobase: 0 or 30 min; for Effect on cathepsin S- or elastase-induced decrease in rheobase (sustained excitability) at 30 min / Effect on trypsin-induced decrease in rheobase (sustained excitability) at 30 min / Effect on protease induced decrease in rheobase (initial hyperexcitability) at 0 min: inhibitor 30 min before and during protease; for Effect on protease induced decrease in rheobase (initial hyperexcitability) at 0 min: trypsin, cathepsin S or elastase
Procedure: To assess the effects of proteases on excitability of nociceptors, DRG neurons were preincubated with trypsin, cathepsin S, elastase or vehicle (control), washed, and rheobase and action potential discharge at a current of twice rheobase were measured at 0 min or 30 min after washing.
DRG (T9-T13) from C57BL/6 mice were digested by incubation in collagenase (1 mg/ml, Worthington Biochemical, Lakewood, N.J.) and dispase (4 mg/ml, Roche Life Science, Indianapolis, Ind.) for 10 min at 37° C., and were dispersed by trituration with a fire-polished Pasteur pipette. Cells were plated onto coverslips coated with laminin (0.017 mg/ml) and poly-D-lysine (2 mg/ml) in 24-well plates. Neurons were cultured in F12 medium (Cat N668, Lot RNBD5333, Sigma-Aldrich, St Louis, Mo. USA) containing 10% fetal calf serum, with penicillin and streptomycin and maintained at 37° C. in a humidified atmosphere of 95% air and 5% CO2 until retrieval (16 h) for electrophysiological studies.
Neuronal excitability was assessed by perforated patch-clamp recordings with amphotericin B (240 μg/ml) from small diameter neurons (<30 pF capacitance) in current clamp mode at room temperature. Only neurons with resting membrane potentials more negative than −40 mV were analyzed. Changes in excitability were quantified by measuring rheobase (minimum current to fire action potential) and numbers of action potentials discharged at twice rheobase. Recordings were made using Axopatch 200B amplifiers, digitized by Digidata 1322A and stored and processed using pClamp 10.1 software (Molecular Devices, Sunnyvale, Calif.). The recording chamber was continuously perfused with external solution at 2 ml/min. External solution was (mM): 140 NaCl, 5 KCl, 10 HEPES, 10 D-glucose, 1 MgCl2, 2 CaCl2; pH to 7.4 with 3 M NaOH. Pipette solution was (mM): 110 K-gluconate, 30 KCl, 10 HEPES, 1 MgCl2, 2 CaCl2; pH 7.25 with 1 M KOH.
DRG neurons were pre-incubated with vehicle (control) or proteases using conditions that we have reported to cause robust hyperexcitability: trypsin (50 nM, 10 min), elastase (10 U/ml, 390 nM, 30 min), Cat-S (500 nM, 60 min). Neurons were then washed and maintained in protease-free F12 medium. Neuronal excitability was assessed 0 or 30 min after washing. In some experiments, neurons were incubated with vehicle (0.3% DMSO), Dyngo4a (30 μM) or PitStop2 (15 μM) for 30 min before and during incubation with proteases.
Results are expressed as mean±SE. Two way ANOVA and post hoc Tukey's tests were used to analyze the data.

PAR2 [8] = test: Whole population FRET with cytosolic ERK sensor CytoEKAR in HEK293 cells; type: cell-based
Procedure: (§5) Förster Resonance Energy Transfer (FRET) was used to characterise PAR2 mediated ERK within different subcellular compartments upon stimulation with different agonists. The assays were repeated after employing pharmacological and genetic approaches shown to abolish receptor internalisation to assess the role of internalisation in generating compartmentalised signals.
(§6) After achieving ˜50% confluency within 10 cm dishes HEK293 cells were transfected with 2-5 μg of PAR2 with N-terminal HA epitope tag (PAR2-HA) and 2-5 μg of desired FRET biosensor, using PEI as a transfection agent. 24 hours after transfection, cells were seeded into poly-D-lysine coated black 96 well isoplates. FRET was assessed 48 hours after cell plating, following overnight serum restriction. […] When used endocytic inhibitors were diluted in 1×HBSS+1% dimethyl sulfoxide (DMSO). Following the replacement of culture media cells were allowed to equilibrate at 37° C. for 30 minutes. FRET was then determined using a PHERAstar FS microplate reader (BMG LabTech, Offenburg, Germany), cells were sequentially excited at 430 nm with emissions being read at 550 nm and 490 nm. A 4 minute baseline was obtained before the addition of vehicle (1×HBSS+/−1% DMSO), protease or 1 μM PDBu (serving as a positive control). Measurements were then continued every minute for a further 30 minutes. FRET ratios were then calculated and corrected to baseline and vehicle treatments in Microsoft Excel 2013.

PAR2 [9] = test: Whole population FRET with nuclear ERK sensor NucEKAR in HEK293 cells; type: cell-based
Procedure: as §5
as §6, with “Measurements were then continued every minute for a further 30 minutes.” left out

[10] = intraplantar 50 μM, 30 min before protease

Molecule: CC[C@@H](N)CNc1ccnc(-c2cc(-c3cnn(C)c3)ccc2O)n1.Cl.Cl [CRT0066101]
- Effect on protease induced PAR2 trafficking away from the trans-golgi network (PAR2 [1]): Less prominent effects

Molecule: O=C(N/N=C/c1cc(O)c(O)cc1O)c1cc2ccccc2cc1O [Dyngo4a, reference compound]
- Effect on trypsin-evoked activation of cytosolic cAMP and PKC and nuclear ERK (PAR2 [2]): prevented
- Effect on Cat-S- or elastase-evoked mechanical hyperalgesia [3, 10]: did not affect
- Effect on trypsin-evoked mechanical hyperalgesia ([3]; intraplantar 50 μM): inhibited
- Effect on trypsin-evoked endocytosis of PAR2 (PAR2 [4]): inhibited
- Effect on trypsin evoked internalisation, plasma membrane marker (PAR2 [5]): less pronounced inhibition
- Effect on trypsin-, Cat-S- or elastase-evoked edema [6, 10]: did not affect
- Effect on trypsin evoked internalisation, early endosomal marker (PAR2 [7]): less pronounced inhibition
- Effect of inhibitor alone on rheobase (DRG neurons): Neither vehicle, PitStop2 nor Dyngo4a alone affected rheobase
- Effect on cathepsin S- or elastase-induced decrease in rheobase (sustained excitability) at 30 min (DRG neurons): no effect and not
- Effect on trypsin-induced decrease in rheobase (sustained excitability) at 30 min (DRG neurons): prevented
- Effect on protease induced decrease in rheobase (initial hyperexcitability) at 0 min (DRG neurons): did not affect

Molecule: COc1ccc2c(c1)c(C1=C(c3c[nH]c4ccccc34)C(=O)NC1=O)cn2CCCN(C)C [G06983]
- Effect on protease induced PAR2 trafficking away from the trans-golgi network (PAR2 [1]): Less prominent effects

Molecule: O=C1OC2(c3ccccc31)c1ccc(O)c(O)c1Oc1c2ccc(O)c1O [Gallein]
- Effect on protease induced PAR2 trafficking away from the trans-golgi network (PAR2 [1]): reduced PAR2 trafficking away from the trans-golgi network

Molecule: O=C1NC(=NS(=O)(=O)c2cccc3ccccc23)S/C1=C\c1ccc(Br)cc1 [PitStop2, reference compound]
- Effect on trypsin-evoked activation of cytosolic cAMP and PKC and nuclear ERK (PAR2 [2]): prevented
- Effect on trypsin-evoked mechanical hyperalgesia ([3]; intraplantar 50 μM): inhibited
- Effect on trypsin-evoked endocytosis of PAR2 (PAR2 [4]): inhibited
- Effect on trypsin evoked internalisation, plasma membrane marker (PAR2 [5]): reduced the magnitude of BRET
- Effect on trypsin evoked cytosolic ERK phosphorylation (PAR2 [8]; 30 μM inhibitor, 30 minute pre-treatment): diminished
- Effect on trypsin evoked internalisation, early endosomal marker (PAR2 [7]): reduced the magnitude of BRET
- Effect of inhibitor alone on rheobase (DRG neurons): Neither vehicle, PitStop2 nor Dyngo4a alone affected rheobase
- Effect on cathepsin S- or elastase-induced decrease in rheobase (sustained excitability) at 30 min (DRG neurons): no effect
- Effect on trypsin-induced decrease in rheobase (sustained excitability) at 30 min (DRG neurons): prevented
- Effect on cathepsin S- or elastase-induced decrease in rheobase (sustained excitability) at 30 min (DRG neurons; listed as Pitstop2): not
- Effect on protease induced decrease in rheobase (initial hyperexcitability) at 0 min (DRG neurons): did not affect

Molecule: elastase
- Signals generated by protease in subcellular compartments (PAR2 [2]): only activated cAMP and PKC at the plasma membrane and ERK in the cytosol
- Mechanical hyperalgesia after intraplantar injection of protease ([3]; ipsilateral paw): caused mechanical hyperalgesia of the ipsilateral paw that was sustained for at least 4 h
- PAR2 endocytosis induced by agonist (PAR2 [4]; HEK cells): did not induce PAR2 endocytosis
- Ability of agonist to produce ERK signals within the nucleus (PAR2 [9]): not
- Change in BRET between PAR2 and plasma membrane marker upon agonist stimulation (PAR2 [5]; trypsin 10 nM): not observed
- Edema after intraplantar injection of protease ([6]; ipsilateral paw): edema of the ipsilateral paw that was maximal after 4 h
- Ability of agonist to produce ERK signals within the cytoplasm (PAR2 [8]): not
- Change in BRET between PAR2 and early endosomal marker upon agonist stimulation (PAR2 [7]; trypsin 10 nM): not observed
- Effect of protease on excitability (rheobase) of DRG neurons (DRG neurons; 0 min and 30 min after washing): immediate increase in excitability
